Tests used:
Format in all cases: in vivo, human
[1] = system: patients known to give positive skin test to penicillin derivatives; experiment: Intradermal skin test with BPO-amines and other penicillin allergy skin test materials (Table II); conditions: for Intensity of reactions in patients: patient alpha / Skin test reaction of patient four, in words: patient four; for Skin test reaction of patient four, in words: text summary of Table II; for Intensity of reactions in patients: patient iota: patient nine; for Intensity of reactions in patients: patient epsilon: patient seven; for Intensity of reactions in patients: delta: patient six; for Intensity of reactions in patients: theta: patient two; for Intensity of reactions in patients: patient zeta: patient one; for Intensity of reactions in patients: beta: patient three; for Intensity of reactions in patients: patient gamma: patient eight
Text: Benzylpenicillin (PG) was 1.0×10^-2 M in 0.11M saline.
Sodium benzylpenicilloate plus sodium benzylpenilloate (P/P) was 1.0×10^-2 M of each dissolved in phosphate buffered saline at pH 7.5.
Benzylpenicilloyl-amine (BPO-amine) was 1.0×10^-2 M concentration phosphate buffered saline at pH 7.5.
Benzylpenicilloyl-n-propyl amine and benzylpenicilloyl-n-ethyl amine (as α-diastereoisomers) were each dissolved to 1.0×10^-2 M concentration in phosphate buffered saline at pH 7.5.
They were healthy men and women ranging in age from 23 to 56 years. Ten people negative to the skin test materials served as controls.
Using 1.0 ml tuberculin syringes with #26 needles and intradermal bevels, 0.01 ml volumes of the test materials were injected intradermally into the anterior-lateral aspects of the arms. Skin tests were read in 15 minutes. A negative reaction is the poorly outlined bleb of fluid --1-3 mm in diameter without surrounding erythema. Positive tests were sharply outlined wheals of 4-20 mm diameter with surrounding erythema. The positive tests were graded as 1+,2+,3+ and 4+ on the basis of wheal diameter. 1+=4-6 mm; 2+=7-9 mm; 3+=10-12 mm; and 4+=more than 13 mm with pseudopods. […] Skin tests were done in duplicate.

[2] = system: patients allergic to penicillin; experiment: Intradermal skin test with B8 L8 solution; conditions: Patient No. 2; B8 L8 1×10^-6 molar in tris-buffered saline pH 8.2
Experimental: (§1) The B8 L8 stock solution was diluted to 1×10^-6 molar in tris-buffered saline with a pH of 8.2, also containing ethylenediaminetetraceticacid (2×10^-4 molar) for stability. The composition was then used in skin testing. The tests were conducted by both the prick test and intradermal test methods, and the results were as follows:
Patient No. 2--intradermal test--the B8 L8 gave a 10 mm wheal and rated from 2+ to 3+ in intensity.

[3] = system: patients allergic to penicillin; experiment: Prick skin test with B8 L8 solution; conditions: Patient No. 1; B8 L8 1×10^-6 molar in tris-buffered saline pH 8.2
Experimental: as §1
Patient No. 1--prick test--B8 L8 =2+.

[4] = intradermal 0.01 ml, read in 15 minutes, BPL 1 × 10^-6 M, other materials 1 × 10^-2 M

Molecule	Intensity of reactions in patients: patient alpha [1, 4]	Skin test reaction of patient four, in words [1]	Intensity of reactions in patients: patient iota [1, 4]	Intensity of reactions in patients: patient epsilon [1, 4]	Intensity of reactions in patients: delta [1, 4]	Intensity of reactions in patients: theta [1, 4]	Intensity of reactions in patients: patient zeta [1, 4]	Intensity of reactions in patients: beta [1, 4]	Intensity of reactions in patients: patient gamma [1, 4]	Intensity of reactions in patients: patient eta ([1]; patient five, intradermal 0.01 ml, read in 15 minutes, BPL 1 × 10^-6 M, other materials 1 × 10^-2 M)	Wheal, intradermal test [2] [mm]	Prick test reaction intensity [3]	Size of the wheal (diameter), prick test [3]
CCNC(=O)C(NC(=O)Cc1ccccc1)C1NC(C(=O)O)C(C)(C)S1 (centres unmarked) [BPO-ethyl amine, benzylpenicilloyl-n-ethyl amine]	2+ (2+=7-9 mm)	positive reaction	0 (A negative reaction is the poorly outlined bleb of fluid --1-3 mm in diameter without surrounding erythema)	trace	0 (A negative reaction is the poorly outlined bleb of fluid --1-3 mm in diameter without surrounding erythema)	3+ (3+=10-12 mm)	–	–	–	–	–	–	–
CCCNC(=O)[C@@H](NC(=O)Cc1ccccc1)[C@@H]1N[C@@H](C(=O)O)C(C)(C)S1 [BPO-propyl amine, Benzylpenicilloyl-n-propyl amine]	–	positive reaction	1+ (1+=4-6 mm)	trace	0 (A negative reaction is the poorly outlined bleb of fluid --1-3 mm in diameter without surrounding erythema)	–	1 - 2°	2+ (2+=7-9 mm)	–	–	–	–	–
CC1(C)S[C@@H]2[C@H](NC(=O)Cc3ccccc3)C(=O)N2[C@H]1C(=O)O [PG, Benzylpenicillin]	0 (A negative reaction is the poorly outlined bleb of fluid --1-3 mm in diameter without surrounding erythema)	–	trace	trace	0 (A negative reaction is the poorly outlined bleb of fluid --1-3 mm in diameter without surrounding erythema)	2+ (2+=7-9 mm)	2+ (2+=7-9 mm)	1+ (1+=4-6 mm)	0 (A negative reaction is the poorly outlined bleb of fluid --1-3 mm in diameter without surrounding erythema)	0 (A negative reaction is the poorly outlined bleb of fluid --1-3 mm in diameter without surrounding erythema)	–	–	–
Benzylpenicilloyl8 -Poly-L-Lysine8 [B8 L8]	–	–	–	–	–	–	–	–	–	–	10	2+ (2+=7-9 mm)	4-5 mm
Benzylpenicilloyl-amine [BPO-amine]	1+ (1+=4-6 mm)	–	2+ (2+=7-9 mm)	trace	0 (A negative reaction is the poorly outlined bleb of fluid --1-3 mm in diameter without surrounding erythema)	–	–	–	1+ (1+=4-6 mm)	–	–	–	–

— US4183910A, “Method for testing to predict and/or diagnose allergy to penicillins, and compounds and compositions for use in such tests” (priority 1978, dated 1980)
